We go through 11 molecules from ChEMBL document CHEMBL1201862, “PubChem BioAssay data set” (2004).

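Five concentrations, 48 hours, 96-well plates. GI50 is the concentration that inhibits growth by half.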 Calls of active or inactive are those of the source. No stated cut-off is given here; in the data, active = GI50 up to about 1.1 µM and inactive = higher.

Some test systems named below: A498; ACHN; CAKI-1; COLO 205; EKVX; HCT-116; HT-29; Hs-578T; KM12; MDA-MB-435; MDA-N; NCI-H226; OVCAR-4; OVCAR-8; RXF 393; SF-268; SK-MEL-28; T47D; HL-60.
Holding throughout (assay): inhibition of tumour cell growth, NCI panel, 48 h

In the case of `CC(=O)O/N=C1\C=Cc2c(no[n+]2[O-])C1=O`, the GI50 in the assay on A498 is 16.4 µM (inactive); in the assay on ACHN it was 17.1 µM (inactive); with CAKI-1, 20.5 µM (inactive); in the assay with COLO 205, 9.23 µM (inactive); in the assay with EKVX it was 17.3 µM (inactive); with HCT-116, 14.3 µM (inactive). The GI50 with HT-29 was 17.5 µM (inactive); with Hs-578T it was 20.8 µM (inactive); in the assay on KM12, 18 µM (inactive); with MDA-MB-435 it was 20.6 µM (inactive); in the assay with MDA-N, 17.6 µM (inactive); in the assay with NCI-H226, > 100 µM (inactive). Also, the GI50 in the assay with OVCAR-4 is 17.2 µM (inactive); in the assay with OVCAR-8 it was 12.3 µM (inactive); with RXF 393, 15.2 µM (inactive); with SF-268, 20.8 µM (inactive); with SK-MEL-28, 21.6 µM (inactive); in the assay on T47D it was 25.6 µM (inactive).

Turning to `NC(Cc1ccccc1)C(=O)OCN1C(=O)C2C3C=CC(C2C1=O)C1C(=O)N(COC(=O)C(N)Cc2ccccc2)C(=O)C31` (stereo not given), the GI50 is > 100 µM (inactive) in the assay with ACHN; > 100 µM (inactive) with CAKI-1; 75.9 µM (inactive) in the assay on COLO 205; > 100 µM (inactive) with EKVX; 42.5 µM (inactive) in the assay on HCT-116; 17.4 µM (inactive) in the assay on HL-60. The GI50 in the assay with HT-29 was 18.4 µM (inactive); in the assay on Hs-578T it was > 100 µM (inactive); in the assay on MDA-MB-435, > 100 µM (inactive); with MDA-N, > 100 µM (inactive); in the assay with NCI-H226, > 100 µM (inactive); with OVCAR-8, > 100 µM (inactive). Moreover, the GI50 with RXF 393 is > 100 µM (inactive); in the assay on SF-268, > 100 µM (inactive); with SK-MEL-28, 67.6 µM (inactive); with T47D, > 100 µM (inactive).

For `CCOC(=O)c1nc2ccc(C(F)(F)F)cc2nc1NCc1cc(OC)c(OC)c(OC)c1`, the GI50 is > 100 µM (inactive) in the assay with A498; 50.6 µM (inactive) in the assay on ACHN; > 100 µM (inactive) in the assay on CAKI-1; 29.3 µM (inactive) in the assay with COLO 205; 60.3 µM (inactive) in the assay on EKVX; 30 µM (inactive) in the assay with HCT-116. The GI50 in the assay on HL-60 is 33 µM (inactive); in the assay on HT-29, 59.6 µM (inactive); in the assay on Hs-578T, 32.3 µM (inactive); in the assay on KM12 it was 32.9 µM (inactive); with MDA-MB-435, 35.6 µM (inactive); with MDA-N, 28.4 µM (inactive). Also, the GI50 in the assay on NCI-H226 was > 100 µM (inactive); in the assay with OVCAR-8, > 100 µM (inactive); with RXF 393 it was 39.9 µM (inactive); in the assay on SF-268, 61.8 µM (inactive); with SK-MEL-28, 34 µM (inactive); in the assay on T47D, 27.6 µM (inactive).

Take `NNC(=S)N/N=C(/C(=O)Nc1ccc(Cl)c(Cl)c1)C(C1OC(=O)c2ccccc21)[N+](=O)[O-]` (stereo not given): the GI50 in the assay on A498 is > 100 µM (inactive); in the assay with ACHN, > 100 µM (inactive); in the assay with CAKI-1, > 100 µM (inactive); in the assay with EKVX, > 100 µM (inactive); in the assay with HCT-116 it was > 100 µM (inactive); with HL-60, 19.9 µM (inactive). The GI50 in the assay with HT-29, in the assay with Hs-578T, in the assay with KM12, with MDA-MB-435, in the assay on MDA-N and with NCI-H226 was > 100 µM (inactive) throughout. For the same molecule, the GI50 with OVCAR-4, in the assay on OVCAR-8, in the assay with RXF 393, in the assay on SF-268, in the assay on SK-MEL-28 and in the assay on T47D was > 100 µM (inactive) each time.

Take `CC1=NN(c2nc(N)nc(-c3ccccc3S(N)(=O)=O)n2)C(C)(C)C1`: the GI50 in the assay on A498 was 22.4 µM (inactive); in the assay with ACHN it was 4.44 µM (inactive); in the assay with CAKI-1, 3.37 µM (inactive); with EKVX, 36.1 µM (inactive); with HCT-116, 10.2 µM (inactive); in the assay with HL-60, 6.03 µM (inactive). Further, the GI50 in the assay on HT-29 was 12.1 µM (inactive); in the assay with Hs-578T, 74.1 µM (inactive); in the assay on KM12 it was 29.8 µM (inactive); in the assay on MDA-MB-435 it was 37.8 µM (inactive); in the assay on MDA-N it was 26.6 µM (inactive); in the assay with NCI-H226 it was 9.2 µM (inactive). In addition, the GI50 is 13.2 µM (inactive) with OVCAR-4; 16 µM (inactive) in the assay on OVCAR-8; 14 µM (inactive) with RXF 393; 8.24 µM (inactive) in the assay on SF-268; 27.9 µM (inactive) in the assay with SK-MEL-28; 23.8 µM (inactive) in the assay with T47D.

As to `COc1ccccc1-c1nc(-c2ccccc2O)n[nH]1`, the GI50 with A498, in the assay with ACHN, in the assay on CAKI-1, in the assay on COLO 205, in the assay on HCT-116 and in the assay on HL-60 was > 100 µM (inactive) in each case. For the same molecule, the GI50 with HT-29, with Hs-578T, in the assay with KM12, with MDA-MB-435, in the assay with MDA-N and in the assay on NCI-H226 was > 100 µM (inactive) throughout. Moreover, the GI50 in the assay on OVCAR-4 was > 100 µM (inactive); with OVCAR-8 it was > 100 µM (inactive); in the assay on RXF 393 it was > 100 µM (inactive); in the assay with SF-268, > 100 µM (inactive); in the assay with SK-MEL-28 it was > 100 µM (inactive); in the assay on T47D, 37.2 µM (inactive).

Regarding `S=c1scc(-c2ccc(Cl)cc2)n1OC1CCCC1`, the GI50 in the assay on A498 was 26.1 µM (inactive); in the assay with ACHN, 25.5 µM (inactive); with CAKI-1 it was 47.2 µM (inactive); with COLO 205 it was 12 µM (inactive); in the assay with EKVX, 28.1 µM (inactive); with HCT-116, 22.2 µM (inactive). Moreover, the GI50 in the assay on HL-60 is 22 µM (inactive); in the assay with HT-29, 20.9 µM (inactive); with Hs-578T it was 82.6 µM (inactive); with KM12, 18.5 µM (inactive); in the assay with MDA-MB-435, 15.7 µM (inactive); with MDA-N, 21.6 µM (inactive). Also, the GI50 in the assay with OVCAR-4 is 16.7 µM (inactive); in the assay on OVCAR-8 it was 33.8 µM (inactive); in the assay with RXF 393, 17.1 µM (inactive); in the assay with SF-268, 72.9 µM (inactive); in the assay on SK-MEL-28, 72.4 µM (inactive); with T47D it was 12.9 µM (inactive).

On to `COc1cccc(/C=N/n2c(C)n[nH]c2=O)c1`, for which the GI50 is 25.5 µM (inactive) in the assay with A498; > 100 µM (inactive) in the assay on ACHN; 60.5 µM (inactive) with CAKI-1; > 100 µM (inactive) in the assay on COLO 205; 32 µM (inactive) with EKVX; > 100 µM (inactive) in the assay with HCT-116. For the same molecule, the GI50 is > 100 µM (inactive) in the assay on HT-29; 16.8 µM (inactive) in the assay with Hs-578T; > 100 µM (inactive) in the assay with KM12; > 100 µM (inactive) in the assay with MDA-MB-435; > 100 µM (inactive) in the assay on MDA-N; 95.1 µM (inactive) in the assay on NCI-H226. Besides, the GI50 in the assay on OVCAR-4 was > 100 µM (inactive); in the assay on OVCAR-8, > 100 µM (inactive); in the assay on RXF 393 it was 18.8 µM (inactive); in the assay with SF-268, > 100 µM (inactive); with SK-MEL-28, > 100 µM (inactive); in the assay with T47D it was > 100 µM (inactive).

On to `CC1=C2C(=O)c3ccccc3C(=O)[C@H]2C[C@@H](N2CCCCCC2=O)O1`, for which the GI50 in the assay on A498 was > 100 µM (inactive); with ACHN, 23.4 µM (inactive); with CAKI-1, 16.9 µM (inactive); in the assay with COLO 205, 17.3 µM (inactive); in the assay on EKVX it was 23.1 µM (inactive); in the assay with HL-60, 19 µM (inactive). In addition, the GI50 in the assay with HT-29 is 27 µM (inactive); in the assay on Hs-578T, 30.5 µM (inactive); in the assay on KM12, 16.7 µM (inactive); with MDA-MB-435, 16 µM (inactive); in the assay with MDA-N it was 16 µM (inactive); with NCI-H226 it was 30.5 µM (inactive). The GI50 in the assay on OVCAR-4 is 17.2 µM (inactive); in the assay on OVCAR-8, 21.5 µM (inactive); with RXF 393, 27 µM (inactive); in the assay with SF-268, 20.9 µM (inactive); in the assay with SK-MEL-28, 18.7 µM (inactive); with T47D it was 20.8 µM (inactive).

Take `CCOC(=O)c1[nH]cc(C)c1-c1cccn1-c1ccc(Cl)cc1[N+](=O)[O-]`: the GI50 is 35.3 µM (inactive) in the assay with A498; 23.9 µM (inactive) in the assay with ACHN; 31.7 µM (inactive) in the assay with CAKI-1; 17.8 µM (inactive) in the assay with COLO 205; 20.6 µM (inactive) in the assay on EKVX; 16.7 µM (inactive) in the assay with HCT-116. Besides, the GI50 in the assay with HT-29 was 16.2 µM (inactive); in the assay on Hs-578T it was 15.8 µM (inactive); in the assay with KM12 it was 20.1 µM (inactive); in the assay on MDA-MB-435, 19.6 µM (inactive); with MDA-N, 22.2 µM (inactive); in the assay with NCI-H226 it was 16.7 µM (inactive). For the same molecule, the GI50 in the assay with OVCAR-4 was 32.5 µM (inactive); with OVCAR-8, 20.8 µM (inactive); in the assay on RXF 393, 13.7 µM (inactive); with SF-268 it was 21.1 µM (inactive); in the assay with SK-MEL-28, 22.8 µM (inactive); in the assay with T47D it was 31 µM (inactive).

With `S=C(N/N=C\C=N/NC(=S)N1CCCCC1)N1CCCCC1`, the GI50 in the assay with A498 is 1.34 µM (inactive); in the assay with ACHN, 0.267 µM (active); in the assay on CAKI-1 it was 0.619 µM (active); in the assay on COLO 205 it was 0.592 µM (active); with EKVX it was 0.515 µM (active); with HCT-116 it was 0.124 µM (active). Further, the GI50 is 0.163 µM (active) in the assay with HT-29; 0.879 µM (active) with Hs-578T; 0.54 µM (active) in the assay with KM12; 1.01 µM (active) in the assay on MDA-MB-435; > 26.1 µM (inactive) in the assay on MDA-N; 0.489 µM (active) with NCI-H226. The GI50 in the assay with OVCAR-8 is 0.178 µM (active); with RXF 393, 0.296 µM (active); in the assay with SF-268, 0.231 µM (active); with SK-MEL-28 it was 0.682 µM (active); in the assay with T47D, 0.287 µM (active).
